Laboratory results: patent publication US5856480A, “Optically active compound” (Nippon Soda Co., Ltd., priority 1994, dated 1999)

What was measured:
[1] = system: platelet aggregation induced by U-46619; test: Inhibitory effect on platelet aggregation induced by U-46619, in vitro, PRP; type: cell-based, rabbits; details: Oryctolagus cuniculus, 10 μM U-46619, rabbit PRP, 3 min pre-incubation, measured 5 min, read-out: Inhibition of Platelet Aggregation (IC50), U-46619
Procedure: (§1) In vitro inhibitory activity of the compound of the present invention was evaluated on platelet aggregation each induced by adenosine diphosphate (ADP), collagen, arachidonic acid, U-46619 and thrombin, respectively, by using an aggregation meter (type: hematracer PAT-606, manufactured by Niko bioscience Co., Ltd). 0.38% citric acid-containing blood collected from rabbits was centrifuged at 1,200 rpm for 15 min. to thereby obtain platelet rich plasma (hereinafter referred to as PRP). The PRP obtained was further centrifuged at 3,500 rpm for 10 min., and the supernatant was used as platelet poor plasma (hereinafter referred to as PPP). The platelets in the PRP were prepared by dilution with PPP to a concentration of 2 to 5×10^8 cells/ml, and 10 μM of ADP, 20 μg/ml of collagen, 200 μg/ml of arachidonic acid, 10 μM of U-46619 and 0.5 U/ml of thrombin are used for the induction of platelet aggregation, respectively, where all of those concentrations are expressed in the final concentration. The test compound was dissolved in dimethyl sulfoxide (DMSO), and to 0.2 μl of the solution thus obtained, was added 0.2 ml of the sample of PRP prepared as described above, then the solution was placed for pre-incubation for 3 min. Then, each 22 μl of the said aggregation-inducing agents, ADP, collagen, U-46619 and thrombin, and 2.2 μl of arachidonic acid, were added thereto, respectively, then platelet aggregation was measured for 5 min., except for collagen, for which the measurement was conducted for 10 min. The inhibitory effect on platelet aggregation was expressed as inhibition rate (%) respective to the maximum aggregation rate obtained in the control plot. [formula]
(§2) A dose-response curve was prepared, and from which IC50, a dose attainable 50% inhibition of platelet aggregation, was determined.

[2] = system: platelet aggregation induced by adenosine diphosphate (ADP); test: Inhibitory effect on platelet aggregation induced by ADP, in vitro, PRP; type: cell-based, rabbits; details: Oryctolagus cuniculus, 10 μM ADP, rabbit PRP, 3 min pre-incubation, measured 5 min, read-out: Inhibition of Platelet Aggregation (IC50), ADP
Procedure: as §1, §2

[3] = system: platelet aggregation induced by thrombin; test: Inhibitory effect on platelet aggregation induced by thrombin, in vitro, PRP; type: cell-based, rabbits; details: Oryctolagus cuniculus, 0.5 U/ml thrombin, rabbit PRP, 3 min pre-incubation, measured 5 min, read-out: Inhibition of Platelet Aggregation (IC50), Thrombin
Procedure: as §1, §2

[4] = system: platelet aggregation induced by arachidonic acid; test: Inhibitory effect on platelet aggregation induced by arachidonic acid, in vitro, PRP; type: cell-based, rabbits; details: Oryctolagus cuniculus, 200 μg/ml arachidonic acid, rabbit PRP, 3 min pre-incubation, measured 5 min, read-out: Inhibition of Platelet Aggregation (IC50), Arachidonic Acid
Procedure: as §1, §2

[5] = system: platelet aggregation induced by collagen; test: Inhibitory effect on platelet aggregation induced by collagen, in vitro, PRP; type: cell-based, rabbits; details: Oryctolagus cuniculus, 20 μg/ml collagen, rabbit PRP, 3 min pre-incubation, measured 10 min, read-out: Inhibition of Platelet Aggregation (IC50), Collagen
Procedure: as §1, §2

platelet aggregation = test: Inhibitory effect on platelet aggregation, overall statement; type: cell-based, rabbits; details: same procedure as Test Example 1; crystalline compound of Example 2
Procedure: as §1, with “The platelets in the PRP were prepared by dilution with PPP to a concentration of 2 to 5×10^8 cells/ml, and 10 μM of ADP, 20 μg/ml of collagen, 200 μg/ml of arachidonic acid, 10 μM of U-46619 and 0.5 U/ml of thrombin are used for the induction of platelet aggregation, respectively, where all of those concentrations are expressed in the final concentration. The test compound was dissolved in dimethyl sulfoxide (DMSO), and to 0.2 μl of the solution thus obtained, was added 0.2 ml of the sample of PRP prepared as described above, then the solution was placed for pre-incubation for 3 min.” left out, “[formula]” left out

[6] = Residue of Solvent (water by Karl Fischer, ethanol by GC); type: physicochemical; details: for Water Content (%): Karl Fischer moisture meter; for removal of remaining solvent by drying (in words): as demonstrated in Table 4; for Ethanol Content (%): gas chromatography, sample in DMSO
Procedure: By using the same noncrystalline powder and the crystalline form as the ones used in the Test Example 2, the amount of remaining solvent was analyzed.
Each 50 mg of the noncrystalline powder and the crystalline form were weighed precisely, on which water content was determined by using a Karl Fischer moisture meter, respectively. Whereas, each 50 mg of the noncrystalline powder and the crystalline form were weighed and dissolved in dimethyl sulfoxide (DMSO), respectively, and those solution were adjusted to a volume of 50 ml, respectively. A 2 μl portion out of the 50 ml solution was used for determining the ethanol content in the test sample by using gas chromatography (GC), respectively.
N2 : 25 ml/min, Air: 0.6 kg/cm^2, H2 : 0.6 kg/cm^2
Temperature : 180° C. at Column; 220° C. at Injection site, 220° C. at Detection site.

[7] = Test on Stability (remaining rate by HPLC after storage at 80° C.); type: physicochemical; details: for Remaining Rate (%), 0 day: 80° C.; for Remaining Rate (%), 0 day / Remaining Rate (%), After 4 days: sealed vial, HPLC; for Remaining Rate (%), After 4 days: after 4 days at 80° C., 5760 min
Procedure: To 30 ml of ethanol, was dissolved 2 g of (R)-(-)-4,5-dihydro-5-methyl-6-[4-[(2-propyl-3-oxo-1-cyclohexenyl) amino]phenyl]-3(2H)-pyridazinone under heating, and the solution was place for cooling under room temperature. After condensing the solvent of the solution under reduced pressure, the solution was then dried under reduced pressure by using a vacuum pump, thereby affording 1.5 g of the noncrystalline powder of said compound of which melting point being of from 102° to 106° C.
Each 10 mg of the noncrystalline powder obtained as described above and the crystalline form obtained in the Example 2 were weighed precisely, placed in a 20 ml volume vial then sealed, respectively, and preserved for 4 days at 80° C. Then, the vials were cooled to room temperature, and subsequently the determination of the remaining rate (%) of the test compounds were conducted by using high performance liquid chromatography (HPLC).
Column: TSK-gel 80 TM 4.6 mm I.D×250 mm (Manufactured by Tosoh Corporation)
Mobile phase: Mixture of acetonitrile and distillated water (Combining rate, 60/40)
Flow Speed: 1.0 ml/min., Temperature: 40° C., Wavelength for Detection: 254 nm

Row | SMILES | IC50 [1] [µM] | IC50 [2] [µM] | IC50 [3] [µM] | IC50 [4] [µM] | IC50 [5] [µM] | inhibitory effect on platelet aggregation (in words) (platelet aggregation) | Water Content (%) [6] [%] | removal of remaining solvent by drying (in words) [6] | Ethanol Content (%) [6] [%] | Remaining Rate (%), 0 day [7] [%] | stability (in words) ([7]; 4 days at 80° C., crystalline form versus noncrystalline powder) | Remaining Rate (%), After 4 days [7] [%]
1 | CCCC1=C(Nc2ccc(C3=NNC(=O)CC3C)cc2)CCCC1=O (racemic) [(±)-(I), 4,5-dihydro-5-methyl-6-[4-[(2-propyl-3-oxo-1-cyclohexenyl)amino]phenyl]-3(2H)-pyridazinone] | 1.5 | 4.5 | 3 | 1.7 | 3.5 | – | – | – | – | – | – | –
2 | CCCC1=C(Nc2ccc(C3=NNC(=O)C[C@H]3C)cc2)CCCC1=O (single isomer, unassigned) [(R)-(-)-(I)] | 0.38 | 2.9 | 1.5 | 0.82 | 2.5 | – | – | – | – | – | – | –
3 | CCCC1=C(Nc2ccc(C3=NNC(=O)C[C@@H]3C)cc2)CCCC1=O [(S)-(-)-(I)] | > 100 | 780 | 560 | 290 | 1010 | – | – | – | – | – | – | –
4 | CCCC1=C(Nc2ccc(C3=NNC(=O)C[C@H]3C)cc2)CCCC1=O [Crystalline form, (R)-(-)-4,5-dihydro-5-methyl-6-[4-[(2-propyl-3-oxo-1-cyclohexenyl)amino]phenyl]-3(2H)-pyridazinone] | – | – | – | – | – | excellent inhibitory effect on platelet aggregation similar to the effect of the noncrystalline compound, (R)-(-)-(I) | 0.2 | easy to dry | 0.2 | 100 | superior than that of the noncrystalline powder | 96
5 | CCCC1=C(Nc2ccc(C3=NNC(=O)C[C@H]3C)cc2)CCCC1=O [Noncrystalline powder, (R)-(-)-4,5-dihydro-5-methyl-6-[4-[(2-propyl-3-oxo-1-cyclohexenyl)amino]phenyl]-3(2H)-pyridazinone] | – | – | – | – | – | – | 1.3 | difficult to completely remove the remaining solvent | 4.3 | 100 | – | 58
